What all share (format): cell-based
The subject of test [1] is Molm-13 cells. Nature of the test: Cell viability assay, inhibition of Molm-13 cells. As to conditions: Homo sapiens; for inhibition at 1 µM: compound at 1 μM; for inhibition at 3 µM: compound at 3 μM. The protocol: [Worded in the source for another cell line; this cell line is reported under the same test.] (§1) H358, H23, SW48, and AsPC-1 cells were cultured in RPMI 1640 media supplemented with 10% fetal bovine serum, streptomycin, and penicillin. Lovo and SW480 cells were cultured in DMEM media supplemented with 10% fetal bovine serum, streptomycin, and penicillin. The cell lines were plated in their respective medium supplemented with 2.5% fetal bovine serum, streptomycin, and penicillin. All cell lines were plated in white walled 96-well plates at 2,000 cells/well or 384-well plates at 500 cells/well, except Lovo, which were plated at 4,000 or 1,000 cells/well, respectively. The cells were incubated in DMSO (control) or a compound for 3 days at 37° C. under 5% C02. A CELLTITER-GLO® reagent (100 μL) was then added to each well. After a 10 min incubation with shaking, luminescence was measured using an ENVISION® multimode plate reader. IC50 values are summarized in Table 1 and percentages of inhibition are summarized in Table 2, where compound T1 is 2-(4-(2-methyl-3,5-diphenylpyrazolo[1,5-a]pyrimidin-7-yl)piperazin-1-yl)ethan-1-ol.

The subject of test [2] is SW48 (wt) cells. The experiment in a line: Cell viability assay (CELLTITER-GLO), SW48 cells. As to conditions: 3 days incubation, 2.5% fetal bovine serum, read-out: Inhibition of Cancerous Cells IC50 (μM) SW48 (wt). Here is the method: as §1
(In general: ATP-based viability assays read luminescence as a measure of living cells.)

Test [3] relates to SW480 (G12V) cells. Nature of the test: Cell viability assay (CELLTITER-GLO), SW480 cells. As to conditions: 3 days incubation, 2.5% fetal bovine serum, read-out: Inhibition of Cancerous Cells IC50 (μM) SW480 (G12V). Here is the method: as §1
Test [4] relates to AsPC-1 (G12D) cells. Nature of the test: Cell viability assay (CELLTITER-GLO), AsPC-1 cells. As to conditions: 3 days incubation, 2.5% fetal bovine serum, read-out: Inhibition of Cancerous Cells IC50 (μM) AsPC-1 (G12D). The protocol: as §1
For test [5], the system named is Lovo (G13D) cells. The experiment in a line: Cell viability assay (CELLTITER-GLO), Lovo cells. As to conditions: 3 days incubation, 2.5% fetal bovine serum, read-out: Inhibition of Cancerous Cells IC50 (μM) Lovo (G13D). The protocol:
as §1

Test [6] concerns H358 (G12C) cells. The experiment in a line: Cell viability assay (CELLTITER-GLO), H358 cells. As to conditions: 3 days incubation, 2.5% fetal bovine serum, read-out: Inhibition of Cancerous Cells IC50 (μM) H358 (G12C). The protocol:
as §1

Like-named read-outs stand apart in the source and are kept apart here. Where only a bound is given, the exact number is not on record here.

`Cc1nn2c(N3CCN(CCO)CC3)cc(-c3ccccc3)nc2c1-c1cccc(CCCCCN2CCN(C(=O)COc3cccc(N4CCC(=O)NC4=O)c3)CC2)c1` [Compound C10, 1-(3-(2-(4-(5-(3-(7-(4-(2-Hydroxyethyl)piperazin-1-yl)-2-methyl-5-phenyl-pyrazolo[1,5-a]pyrimidin-3-yl)phenyl)pentyl)piperazin-1-yl)-2-oxoethoxy)phenyl)dihydro-pyrimidine-2,4(1H,3H)-dione]: in test [1], the inhibition at 1 µM was found to be 29% and the inhibition at 3 µM is 98%.

Consider `Cc1nn2c(N3CCN(CCO)CC3)cc(-c3cccc(CCCN4CCN(C(=O)CNc5ccc6c(C7CCC(=O)NC7=O)nn(C)c6c5)CC4)c3)nc2c1-c1ccccc1` (centres unmarked) [Compound D1, 3-(6-((2-(4-(3-(3-(7-(4-(2-Hydroxyethyl)piperazin-1-yl)-2-methyl-3-phenyl-pyrazolo[1,5-a]pyrimidin-5-yl)phenyl)propyl)piperazin-1-yl)-2-oxoethyl)amino)-1-methyl-1H-indazol-3-yl)piperidine-2,6-dione], for which, in test [1], the inhibition at 1 µM was determined as 24% and the inhibition at 3 µM was determined as 98%.

For the compound `Cc1nn2c(N3CCN(CCO)CC3)cc(-c3ccccc3)nc2c1-c1cccc(CCCCCN2CCN(C(=O)CNc3ccc4c(N5CCC(=O)NC5=O)nn(C)c4c3)CC2)c1` [Compound D14, 1-(6-((2-(4-(5-(3-(7-(4-(2-Hydroxyethyl)piperazin-1-yl)-2-methyl-5-phenyl-pyrazolo[1,5-a]pyrimidin-3-yl)phenyl)pentyl)piperazin-1-yl)-2-oxoethyl)amino)-1-methyl-1H-indazol-3-yl)dihydropyrimidine-2,4(1H,31H)-dione], the IC50 in test [2] is > 10 µM; in test [3] it was 1.1 µM; in test [4], > 10 µM; in test [5], 0.62 µM; in test [6] it was 2.2 µM.

As for `Cc1nn2c(N3CCN(CCO)CC3)cc(-c3ccccc3)nc2c1-c1cccc(CCCCCCCN2CCN(C(=O)CNc3ccc4c(N5CCC(=O)NC5=O)nn(C)c4c3)CC2)c1` [Compound D15, 1-(6-((2-(4-(7-(3-(7-(4-(2-Hydroxyethyl)piperazin-1-yl)-2-methyl-5-phenyl-pyrazolo[1,5-a]pyrimidin-3-yl)phenyl)heptyl)piperazin-1-yl)-2-oxoethyl)amino)-1-methyl-1H-indazol-3-yl)dihydropyrimidine-2,4(1H,3H)-dione], the IC50 is 1.1 µM in test [2] (Homo sapiens, 72 h); 0.56 µM in test [3] (Homo sapiens, 72 h); 1.4 µM in test [4] (Homo sapiens, ASPC1, 72 h); 0.64 µM in test [5] (Homo sapiens, 72 h); 1.3 µM in test [6] (Homo sapiens, NCI-H358, 72 h).

A word on the inhibition: it is the drop in the measured response relative to a control, in per cent. By IC50 is commonly meant the concentration that inhibits the measured activity by half.
